# Reference: ChEMBL document CHEMBL3870336, “The discovery of quinoline based single-ligand human H1 and H3 receptor antagonists” (Bioorg Med Chem Lett, 2016)
# Calls of active or inactive are those of the source. The calls are words filed in the database; no cut-off is given here.
# Key:
# Histamine H1 receptor [1] = target: T1, Histamine H1 receptor (Homo sapiens, UniProt P35367); assay: Antagonist activity at human Histamine H1 receptor expressed in CHO cells preincubated for 30 mins prior to histamine addition followed by subsequent washout and histamine challenge at 270 mins by Fluo-4 dye based FLIPR assay relative to azelastine; format: cell-based
# Histamine H1 receptor [2] = target: T1, Histamine H1 receptor; assay: Antagonist activity at human Histamine H1 receptor expressed in CHO cells assessed as inhibition of histamine-induced calcium flux at 100 nM preincubated for 30 mins followed by histamine addition by Fluo-4-AM dye based FLIPR assay; format: functional, cell-based; conditions: read-out: pA2 (converted)
# Histamine H1 receptor [3] = target: T1, Histamine H1 receptor; assay: Antagonist activity at human Histamine H1 receptor expressed in CHO cells assessed as inhibition of histamine-induced calcium flux preincubated for 30 mins followed by histamine addition by Fluo-4-AM dye based FLIPR assay; format: functional, cell-based
# Histamine H3 receptor = Histamine H3 receptor (Homo sapiens, UniProt Q9Y5N1); assay: Antagonist activity at human Histamine H3 receptor expressed in CHO cell membranes assessed as inhibition of histamine-induced [35S]GTPgammaS binding after 2 to 6 hrs by scintillation proximity assay; format: functional
# [4] = target: Voltage-gated inwardly rectifying potassium channel KCNH2 (Homo sapiens, UniProt Q12809); assay: (§1) Displacement of [3H]-dofetilide from human ERG expressed in CHOK1 cell membranes incubated for 4 hrs in dark by luminescent assay; design: species or system CHO-K1
# [5] = target: T2, Alpha-1B adrenergic receptor (Homo sapiens, UniProt P35368); assay: Antagonist activity at adrenergic alpha1B receptor (unknown origin) expressed in Rat1 cells assessed as inhibition of phenylephrine-induced Ca2+ flux preincubated for 30 mins followed by phenylephrine addition by Fluo-4-AM-dye based FLIPR assay; format: cell-based
# T2 sequence (P35368 whole entry): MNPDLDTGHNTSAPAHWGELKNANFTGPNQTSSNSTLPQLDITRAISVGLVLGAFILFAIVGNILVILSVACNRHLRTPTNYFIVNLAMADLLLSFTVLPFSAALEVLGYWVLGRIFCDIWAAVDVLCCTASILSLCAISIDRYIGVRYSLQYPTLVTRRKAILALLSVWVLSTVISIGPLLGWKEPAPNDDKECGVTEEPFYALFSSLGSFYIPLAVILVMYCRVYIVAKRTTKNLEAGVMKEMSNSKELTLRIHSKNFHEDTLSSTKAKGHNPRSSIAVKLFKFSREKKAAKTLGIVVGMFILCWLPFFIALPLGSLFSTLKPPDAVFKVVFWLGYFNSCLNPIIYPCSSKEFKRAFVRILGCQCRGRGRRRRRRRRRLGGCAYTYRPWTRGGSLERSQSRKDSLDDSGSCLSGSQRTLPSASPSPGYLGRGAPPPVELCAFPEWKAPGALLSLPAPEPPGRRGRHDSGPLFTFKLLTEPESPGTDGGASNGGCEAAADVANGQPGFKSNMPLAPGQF
# Histamine H1 receptor [6] = target: T1, Histamine H1 receptor; assay: Antagonist activity at human Histamine H1 receptor expressed in CHO cells preincubated for 30 mins prior to histamine addition followed by subsequent washout and histamine challenge at 90 mins by Fluo-4 dye based FLIPR assay relative to azelastine; format: cell-based
# [7] = Lipophilicity, logD of compound at pH 7.4; format: physicochemical; conditions: buffer
# [8] = target: T3, Alpha-1A adrenergic receptor (Homo sapiens, UniProt P35348); assay: Antagonist activity at adrenergic alpha1A receptor (unknown origin) expressed in Rat1 cells assessed as inhibition of phenylephrine-induced Ca2+ flux preincubated for 30 mins followed by phenylephrine addition by Fluo-4-AM-dye based FLIPR assay; format: cell-based
# T3 sequence (P35348 whole entry): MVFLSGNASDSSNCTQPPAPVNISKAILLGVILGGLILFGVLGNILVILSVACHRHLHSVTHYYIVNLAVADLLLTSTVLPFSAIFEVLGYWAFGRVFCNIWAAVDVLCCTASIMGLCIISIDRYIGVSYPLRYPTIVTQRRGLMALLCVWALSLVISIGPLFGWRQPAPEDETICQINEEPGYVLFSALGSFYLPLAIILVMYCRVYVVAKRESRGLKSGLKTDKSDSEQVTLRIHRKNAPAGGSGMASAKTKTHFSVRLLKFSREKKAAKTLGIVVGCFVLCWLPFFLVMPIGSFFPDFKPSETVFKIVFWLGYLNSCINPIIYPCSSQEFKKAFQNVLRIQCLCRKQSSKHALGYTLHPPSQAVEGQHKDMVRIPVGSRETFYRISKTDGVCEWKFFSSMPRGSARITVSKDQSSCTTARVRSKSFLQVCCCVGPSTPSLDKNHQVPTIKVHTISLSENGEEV
# hERG (KCNH2) = hERG (KCNH2) (Homo sapiens, UniProt Q12809); assay: as §1; design: species or system CHO-K1; conditions: human, CHO-K1 cell membranes expressing human ERG, probe [3H]-dofetilide
# [9] = Ratio of drug level in brain to plasma in rat; format: ADME; conditions: brain and plasma, read-out: BPR
# Chain of Voltage-gated inwardly rectifying potassium channel KCNH2 (Q12809 whole entry): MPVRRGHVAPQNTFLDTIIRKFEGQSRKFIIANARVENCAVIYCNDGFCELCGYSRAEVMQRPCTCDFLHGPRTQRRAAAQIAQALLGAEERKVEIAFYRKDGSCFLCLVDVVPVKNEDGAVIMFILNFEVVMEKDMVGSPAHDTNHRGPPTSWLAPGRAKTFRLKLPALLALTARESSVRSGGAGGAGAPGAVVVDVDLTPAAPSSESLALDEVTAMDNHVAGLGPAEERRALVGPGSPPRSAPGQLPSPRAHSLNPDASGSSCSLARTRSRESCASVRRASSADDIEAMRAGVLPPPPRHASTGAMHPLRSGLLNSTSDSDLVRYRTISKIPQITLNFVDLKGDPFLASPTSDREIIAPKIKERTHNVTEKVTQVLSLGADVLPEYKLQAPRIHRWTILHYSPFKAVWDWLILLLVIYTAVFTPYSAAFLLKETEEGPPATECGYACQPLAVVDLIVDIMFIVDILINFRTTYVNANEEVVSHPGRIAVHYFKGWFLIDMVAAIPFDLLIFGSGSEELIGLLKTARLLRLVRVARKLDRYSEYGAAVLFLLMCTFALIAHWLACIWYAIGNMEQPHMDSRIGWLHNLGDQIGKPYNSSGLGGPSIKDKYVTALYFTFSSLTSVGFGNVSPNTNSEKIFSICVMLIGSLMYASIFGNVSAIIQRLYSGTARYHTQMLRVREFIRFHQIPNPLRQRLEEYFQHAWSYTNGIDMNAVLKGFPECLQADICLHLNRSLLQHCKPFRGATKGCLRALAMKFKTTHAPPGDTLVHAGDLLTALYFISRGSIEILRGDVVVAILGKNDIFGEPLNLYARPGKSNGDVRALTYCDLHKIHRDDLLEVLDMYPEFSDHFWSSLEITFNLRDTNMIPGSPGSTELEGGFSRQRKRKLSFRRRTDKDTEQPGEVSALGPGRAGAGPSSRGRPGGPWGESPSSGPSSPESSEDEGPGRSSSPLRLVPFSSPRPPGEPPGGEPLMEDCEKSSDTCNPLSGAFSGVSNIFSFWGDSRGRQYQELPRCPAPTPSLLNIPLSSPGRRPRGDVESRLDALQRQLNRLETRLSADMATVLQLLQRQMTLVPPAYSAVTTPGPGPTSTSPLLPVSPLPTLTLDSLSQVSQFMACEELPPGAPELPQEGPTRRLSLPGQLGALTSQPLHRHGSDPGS
# T1 sequence (P35367 whole entry): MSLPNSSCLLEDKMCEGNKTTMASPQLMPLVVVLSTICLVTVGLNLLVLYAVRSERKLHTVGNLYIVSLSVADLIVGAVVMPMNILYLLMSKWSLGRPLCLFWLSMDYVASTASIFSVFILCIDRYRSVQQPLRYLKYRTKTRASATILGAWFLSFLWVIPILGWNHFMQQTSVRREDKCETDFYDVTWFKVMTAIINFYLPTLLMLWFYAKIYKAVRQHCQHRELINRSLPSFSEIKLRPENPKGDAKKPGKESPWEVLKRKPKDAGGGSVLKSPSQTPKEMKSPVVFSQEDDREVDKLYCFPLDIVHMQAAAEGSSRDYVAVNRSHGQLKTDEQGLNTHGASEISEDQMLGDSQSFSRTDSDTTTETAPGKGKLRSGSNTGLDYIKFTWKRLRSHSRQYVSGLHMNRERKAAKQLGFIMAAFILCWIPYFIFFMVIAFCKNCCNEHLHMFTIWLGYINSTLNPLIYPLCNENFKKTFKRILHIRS
# Chain of Histamine H3 receptor (Q9Y5N1 whole entry): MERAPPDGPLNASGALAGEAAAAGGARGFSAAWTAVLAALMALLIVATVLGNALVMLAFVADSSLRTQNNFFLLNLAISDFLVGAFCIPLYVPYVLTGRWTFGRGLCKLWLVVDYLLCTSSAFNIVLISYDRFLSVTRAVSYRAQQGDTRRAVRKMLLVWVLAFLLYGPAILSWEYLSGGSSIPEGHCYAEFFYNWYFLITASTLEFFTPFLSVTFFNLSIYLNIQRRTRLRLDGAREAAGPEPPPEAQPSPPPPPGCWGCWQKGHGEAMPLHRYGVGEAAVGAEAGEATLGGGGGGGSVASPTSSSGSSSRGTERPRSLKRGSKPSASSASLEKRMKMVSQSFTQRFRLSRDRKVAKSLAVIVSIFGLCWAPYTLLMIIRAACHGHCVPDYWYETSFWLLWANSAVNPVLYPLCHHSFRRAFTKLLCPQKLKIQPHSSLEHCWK
# Chain of hERG (KCNH2) (Q12809 whole entry): as the sequence (Q12809 whole entry) above
inhibition (Histamine H1 receptor [1]),Kb (Histamine H1 receptor [2]) [nM],Ki (Histamine H1 receptor [3]) [nM],Ki (Histamine H3 receptor) [nM],Ki [5] [nM],inhibition (Histamine H1 receptor [6]),logD [7],Ki [8] [nM],Kp [9],Structure (SMILES),IC50 [4] [nM],IC50 at 4 h (hERG (KCNH2)) [nM]
Active,5.01,15.8,0.631,50.1,Active,2.2,79.4,,c1cnc2c(N3CCN(CCCCc4ccc(OCCCN5CCCCCC5)cc4)CC3)cccc2c1,1580,
Active,,,,,Active,,,,O=c1c2ccccc2c(Cc2ccc(Cl)cc2)nn1C[C@H]1CCCN1CCCCc1ccc(OCCCN2CCCCCC2)cc1 [GSK-1004723],,50.1
,,> 2510,1.26,> 2000,,-0.12,> 2000,,O=C(O)c1ccc2cccnc2c1N1CCN(CCc2ccc(OCCCN3CCCCCC3)cc2)CC1,,
,,39.8,1.26,> 2000,,-0.63,> 2000,,O=C(O)CCc1cnc2c(N3CCN(CCc4ccc(OCCCN5CCCCCC5)cc4)CC3)cccc2c1,31600,
,,> 2510,2,> 2000,,-1,> 2000,,O=C(O)c1cc(N2CCN(CCc3ccc(OCCCN4CCCCCC4)cc3)CC2)c2ncccc2c1,39800,
,,79.4,0.398,100,,1.8,31.6,,c1cnc2c(N3CCN(CCCc4ccc(OCCCN5CCCCCC5)cc4)CC3)cccc2c1,1000,
,6.31,25.1,0.316,251,Active,1.9,50.1,0.15,O=C(O)CCc1ccc2cc(Cc3ccccc3)cc(N3CCN(CCc4ccc(OCCCN5CCCCCC5)cc4)CC3)c2n1,6310,
,2.51,15.8,2,> 2000,,1,251,,CCc1cc(N2CCN(CCc3ccc(OCCCN4CCCCCC4)cc3)CC2)c2nc(CCC(=O)O)ccc2c1,,
,,12.6,1.58,200,,0.18,> 2000,,O=C(O)CCc1ccc2cccc(N3CCN(CCc4ccc(OCCCN5CCCCCC5)cc4)CC3)c2n1,15800,
,,200,1.58,79.4,,0.34,63.1,,O=C(O)/C=C/c1ccc2cccc(N3CCN(CCc4ccc(OCCCN5CCCCCC5)cc4)CC3)c2n1,> 63100,
,,> 2510,1.58,> 2000,,-0.24,> 2000,,O=C(O)c1ccnc2c(N3CCN(CCc4ccc(OCCCN5CCCCCC5)cc4)CC3)cccc12,> 63100,
,,398,1.58,> 2000,,-0.78,> 2000,,O=C(O)c1cnc2c(N3CCN(CCc4ccc(OCCCN5CCCCCC5)cc4)CC3)cccc2c1,20000,
Active,10,20,0.501,15.8,Active,1.9,7.94,> 13,c1cnc2c(N3CCN(CCc4ccc(OCCCN5CCCCCC5)cc4)CC3)cccc2c1,7940,
,1.58,12.6,0.794,398,,2.3,316,,CCCCc1cc(N2CCN(CCc3ccc(OCCCN4CCCCCC4)cc3)CC2)c2nc(CCC(=O)O)ccc2c1,2510,
,,251,0.501,> 2000,,-0.37,> 2000,,O=C(O)c1ccc2cccc(N3CCN(CCc4ccc(OCCCN5CCCCCC5)cc4)CC3)c2n1,,
